Patent US12227500B2, “Substituted pyrrolo[2,3-b]pyridines for suppressing toxic endoplasmic reticulum stress” (THE TRUSTEES OF COLUMBIA UNIVERSITY IN THE CITY OF NEW YORK, priority 2018, dated 2025)
Like-named read-outs stand apart in the source and are kept apart here.

Key:
[1] = test system: human ES motor neurons carrying the ALS-causing SOD1^A4V mutation; experiment: cells; format: cell-based; conditions: Homo sapiens, Neuron, 72 h, 72 h; for EC50 / Emax: CPA 33 μM; for EC50: read-out: EC50; for viability at 1 µM: CPA (33 μM) + compound (1 μM), read-out: Motor Neuron Survival, % untreated; for Emax: read-out: Emax (MN survival % untreated)
Description: Next, survival assays were performed with all the analogs at once to generate a low-variability dataset. All compounds were evaluated at concentrations ranging from 0.1-3.0 μM (five-point dilution) in three technical replicates and two biological replicates.

[2] = target: HGK/MAP4K4 (Homo sapiens, UniProt O95819); experiment: Radiolabeled ATP kinase assay (Reaction Biology Corp.), HGK; format: biochemical; set-up: purchased Reaction Biology Corp; conditions: 10 μM ATP, read-out: % Enzyme Activity (relative to DMSO controls), HGK/MAP4K4, Data 1; for remaining activity at 0.025 µM: [Cmpd] 0.025 μM; for remaining activity at 0.1 µM: [Cmpd] 0.1 μM
Sequence of HGK/MAP4K4 (O95819 whole entry): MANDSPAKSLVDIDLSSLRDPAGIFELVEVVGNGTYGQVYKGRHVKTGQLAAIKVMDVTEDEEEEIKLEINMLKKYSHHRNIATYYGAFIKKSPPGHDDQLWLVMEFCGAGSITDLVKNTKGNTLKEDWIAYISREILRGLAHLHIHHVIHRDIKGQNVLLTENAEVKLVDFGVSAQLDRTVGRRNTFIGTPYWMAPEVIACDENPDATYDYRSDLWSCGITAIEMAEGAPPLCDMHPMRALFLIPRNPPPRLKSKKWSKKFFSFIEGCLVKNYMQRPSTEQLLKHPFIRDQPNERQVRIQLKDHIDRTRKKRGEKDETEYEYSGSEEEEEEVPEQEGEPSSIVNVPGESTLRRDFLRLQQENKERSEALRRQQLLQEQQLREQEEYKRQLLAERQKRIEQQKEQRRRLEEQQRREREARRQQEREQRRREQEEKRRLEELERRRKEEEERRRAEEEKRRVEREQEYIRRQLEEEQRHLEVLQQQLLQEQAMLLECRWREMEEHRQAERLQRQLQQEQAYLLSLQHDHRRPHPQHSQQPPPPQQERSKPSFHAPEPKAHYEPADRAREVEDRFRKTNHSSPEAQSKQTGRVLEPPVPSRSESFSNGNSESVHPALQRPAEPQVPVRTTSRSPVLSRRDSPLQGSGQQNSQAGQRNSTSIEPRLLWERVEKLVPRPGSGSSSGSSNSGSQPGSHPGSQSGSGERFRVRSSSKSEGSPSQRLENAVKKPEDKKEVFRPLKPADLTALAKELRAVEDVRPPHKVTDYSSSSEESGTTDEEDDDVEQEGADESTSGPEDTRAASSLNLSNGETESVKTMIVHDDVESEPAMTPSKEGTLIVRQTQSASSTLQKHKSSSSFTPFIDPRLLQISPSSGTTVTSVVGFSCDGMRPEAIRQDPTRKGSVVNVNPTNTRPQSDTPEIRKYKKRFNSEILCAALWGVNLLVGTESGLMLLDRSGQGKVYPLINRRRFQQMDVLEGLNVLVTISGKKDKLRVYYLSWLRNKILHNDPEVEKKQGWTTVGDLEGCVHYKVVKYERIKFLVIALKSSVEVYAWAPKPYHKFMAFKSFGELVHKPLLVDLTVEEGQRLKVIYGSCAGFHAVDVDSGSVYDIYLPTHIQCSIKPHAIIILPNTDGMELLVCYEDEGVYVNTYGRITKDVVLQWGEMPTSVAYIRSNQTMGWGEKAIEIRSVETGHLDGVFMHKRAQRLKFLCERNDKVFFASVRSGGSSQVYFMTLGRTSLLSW
Description: (§1) Meanwhile, the same analogs were analyzed in a radiolabeled ATP assay (10 μM ATP; Reaction Biology Corp.) to compare the extent to which they could inhibit the activity of HGK, MLK1, or MLK3 in a cell-free environment (Table S3 and S4).

[3] = target: T1, MLK3/MAP3K11 (Homo sapiens, UniProt Q16584); experiment: Radiolabeled ATP kinase assay (Reaction Biology Corp.), MLK3; format: biochemical; conditions: [Cmpd] 0.1 μM; 10 μM ATP
T1 construct: purchased Reaction Biology Corp
T1 sequence (Q16584 whole entry): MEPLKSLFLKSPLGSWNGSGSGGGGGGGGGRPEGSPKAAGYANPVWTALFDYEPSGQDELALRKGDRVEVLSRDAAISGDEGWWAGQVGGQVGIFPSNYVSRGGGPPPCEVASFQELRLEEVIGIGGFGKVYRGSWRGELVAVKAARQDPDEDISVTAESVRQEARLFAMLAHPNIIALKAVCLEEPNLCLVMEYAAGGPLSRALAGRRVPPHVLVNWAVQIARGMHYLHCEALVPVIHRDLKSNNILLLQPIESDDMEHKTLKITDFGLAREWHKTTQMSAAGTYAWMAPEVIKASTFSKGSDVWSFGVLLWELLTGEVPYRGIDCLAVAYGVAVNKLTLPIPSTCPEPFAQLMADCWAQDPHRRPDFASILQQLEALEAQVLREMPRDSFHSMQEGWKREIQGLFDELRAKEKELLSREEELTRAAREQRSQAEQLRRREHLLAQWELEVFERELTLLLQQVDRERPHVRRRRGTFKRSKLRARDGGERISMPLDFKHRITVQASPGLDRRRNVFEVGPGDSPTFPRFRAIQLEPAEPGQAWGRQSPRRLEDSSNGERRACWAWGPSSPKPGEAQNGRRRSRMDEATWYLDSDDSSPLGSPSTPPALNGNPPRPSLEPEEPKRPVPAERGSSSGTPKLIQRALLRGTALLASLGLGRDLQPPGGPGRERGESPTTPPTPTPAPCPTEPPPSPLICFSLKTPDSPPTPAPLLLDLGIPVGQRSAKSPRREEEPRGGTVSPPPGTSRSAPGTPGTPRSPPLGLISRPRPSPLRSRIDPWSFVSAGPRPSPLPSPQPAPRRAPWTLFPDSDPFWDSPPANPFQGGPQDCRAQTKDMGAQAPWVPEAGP
Description: as §1

[4] = target: T2, MLK1/MAP3K9 (Homo sapiens, UniProt P80192); experiment: Radiolabeled ATP kinase assay (Reaction Biology Corp.), MLK1; format: biochemical; conditions: [Cmpd] 0.1 μM, 10 μM ATP
T2 construct: purchased Reaction Biology Corp
T2 sequence (P80192 whole entry): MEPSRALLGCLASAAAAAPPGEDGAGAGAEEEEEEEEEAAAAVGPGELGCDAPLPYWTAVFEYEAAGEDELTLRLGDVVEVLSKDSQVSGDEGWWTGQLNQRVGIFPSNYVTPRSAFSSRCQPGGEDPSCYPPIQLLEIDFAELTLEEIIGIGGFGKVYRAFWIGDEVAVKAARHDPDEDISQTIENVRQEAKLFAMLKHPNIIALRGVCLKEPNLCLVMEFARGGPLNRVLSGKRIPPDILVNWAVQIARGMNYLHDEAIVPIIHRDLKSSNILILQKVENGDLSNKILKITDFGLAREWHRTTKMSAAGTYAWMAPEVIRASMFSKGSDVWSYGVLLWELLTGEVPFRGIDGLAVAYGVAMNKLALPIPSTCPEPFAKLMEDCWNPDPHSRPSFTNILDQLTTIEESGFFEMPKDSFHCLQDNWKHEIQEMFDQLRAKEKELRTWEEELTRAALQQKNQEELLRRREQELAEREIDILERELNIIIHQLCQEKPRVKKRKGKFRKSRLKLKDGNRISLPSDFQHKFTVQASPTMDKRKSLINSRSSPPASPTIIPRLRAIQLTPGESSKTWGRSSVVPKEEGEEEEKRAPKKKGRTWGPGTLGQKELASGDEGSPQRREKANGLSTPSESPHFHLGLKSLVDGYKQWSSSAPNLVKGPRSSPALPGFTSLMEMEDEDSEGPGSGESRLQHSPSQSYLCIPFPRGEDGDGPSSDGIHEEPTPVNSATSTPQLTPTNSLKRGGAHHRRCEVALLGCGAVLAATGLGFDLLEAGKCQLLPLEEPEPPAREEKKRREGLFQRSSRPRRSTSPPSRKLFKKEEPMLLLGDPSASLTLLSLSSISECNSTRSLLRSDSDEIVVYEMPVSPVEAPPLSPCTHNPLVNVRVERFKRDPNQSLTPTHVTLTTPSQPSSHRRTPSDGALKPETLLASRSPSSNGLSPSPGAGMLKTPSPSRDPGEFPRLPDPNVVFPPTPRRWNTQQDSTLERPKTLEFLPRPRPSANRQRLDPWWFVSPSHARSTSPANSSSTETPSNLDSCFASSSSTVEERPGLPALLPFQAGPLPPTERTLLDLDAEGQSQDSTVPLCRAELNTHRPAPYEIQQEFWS
Description: as §1

[5] = read-out: % Enzyme Activity Remaining (relative to DMSO controls), MLK1/MAP3K9, Data 1
[6] = read-out: % Enzyme Activity Remaining (relative to DMSO controls), MLK1/MAP3K9, Data 2

Row | SMILES | EC50 [1] [nM] | viability at 1 µM [1] [%] | Emax [1] [%] | remaining activity at 0.025 µM [2] [%] | remaining activity at 0.1 µM [2] [%] | % Enzyme Activity Remaining (relative to DMSO controls), MLK3/MAP3K11, Data 1 [3] [%] | % Enzyme Activity Remaining (relative to DMSO controls), MLK3/MAP3K11, Data 2 [3] [%] | remaining activity at 0.1 µM [4, 5] [%] | remaining activity at 0.1 µM [4, 6] [%]
1 | CN1CCN(Cc2ccc(-c3cnc4[nH]cc(-c5ccc(C#N)cc5)c4c3)cc2)CC1 [Compound 7o, 4-(5-(4-((4-Methylpiperazin-1-yl)methyl)phenyl)-1H-pyrrolo[2,3-b]pyridin-3-yl)benzonitrile] | 775 | 49.7 | 68.6 | 58.9 | 29.3 | 90.12 | 92.65 | 93.4 | 90.7
2 | COCCNC(=O)Nc1cccc(-c2c[nH]c3ncc(-c4ccc(CN5CCN(C)CC5)cc4)cc23)c1 [Compound 7az, 1-(2-Methoxyethyl)-3-(3-(5-(4-((4-methylpiperazin-1-yl)methyl)phenyl)-1H-pyrrolo[2,3-b]pyridin-3-yl)phenyl)urea] | 2990 | 22.9 | 51.5 | 87.1 | 65 | 79.28 | 80.78 | 79 | 78.5
3 | CN1CCN(Cc2ccc(-c3cnc4[nH]cc(-c5cccc(C(F)(F)F)c5)c4c3)cc2)CC1 [Compound 7ab, 5-(4-((4-Methylpiperazin-1-yl)methyl)phenyl)-3-(3-(trifluoromethyl)phenyl)-1H-pyrrolo[2,3-b]pyridine] | 1280 | 60.7 | 60.7 | 26.6 | 4.65 | 68.47 | 70.51 | 83.7 | 82.9
4 | CN1CCN(Cc2ccc(-c3cnc4[nH]cc(-c5cnn(C)c5)c4c3)cc2)CC1 [Compound 7s, 3-(1-Methyl-1H-pyrazol-4-yl)-5-(4-((4-methylpiperazin-1-yl)methyl)phenyl)-1H-pyrrolo[2,3-b]pyridine] | 2190 | 42.9 | 100 | 77.8 | 37 | 90.97 | 90.45 | 94.8 | 94.3
5 | CN1CCN(Cc2ccc(-c3cnc4[nH]cc(-c5csc6ccccc56)c4c3)cc2)CC1 [Compound 7f, 3-(Benzo[b]thiophen-3-yl)-5-(4-((4-methylpiperazin-1-yl)methyl)phenyl)-1H-pyrrolo[2,3-b]pyridine] | 338 | 68.3 | 68.3 | 23.2 | 4.89 | 68.84 | 73.51 | 81.1 | 76.5
6 | CNC(=O)Nc1ccc(-c2c[nH]c3ncc(-c4ccc(CN5CCN(C)CC5)cc4)cc23)cc1 [Compound 7am, 1-Methyl-3-(4-(5-(4-((4-methylpiperazin-1-yl)methyl)phenyl)-1H-pyrrolo[2,3-b]pyridin-3-yl)phenyl)urea] | 948 | 80 | 122 | 56 | 17.7 | 49.77 | 46.17 | 51 | 51.2
7 | COC(=O)Nc1cccc(-c2c[nH]c3ncc(-c4ccc(CN5CCN(C)CC5)cc4)cc23)c1 [Compound 7al, Methyl (3-(5-(4-((4-methylpiperazin-1-yl)methyl)phenyl)-1H-pyrrolo[2,3-b]pyridin-3-yl)phenyl)carbamate] | 670 | – | 113 | 33.8 | 6.76 | 32.96 | 30.90 | 33.4 | 32.7
8 | CN1CCN(Cc2ccc(-c3cnc4[nH]cc(-c5ccc(F)c(C(=O)NCc6ccco6)c5)c4c3)cc2)CC1 [Compound 7av, 2-Fluoro-N-(furan-2-ylmethyl)-5-(5-(4-((4-methylpiperazin-1-yl)methyl)phenyl)-1H-pyrrolo[2,3-b]pyridin-3-yl)benzamide] | 1050 | 34.5 | 53.5 | 88.8 | 51.2 | 84.24 | 86.99 | 86 | 84.2
9 | CN1CCN(Cc2ccc(-c3cnc4[nH]cc(-c5ccc6cnn(C)c6c5)c4c3)cc2)CC1 [Compound 7ag, 1-Methyl-6-(5-(4-((4-methylpiperazin-1-yl)methyl)phenyl)-1H-pyrrolo[2,3-b]pyridin-3-yl)-1H-indazole] | 418 | 73.3 | 88 | 32.5 | 7.91 | 54.67 | 52.80 | 50.9 | 50
10 | CN1CCN(Cc2ccc(-c3cnc4[nH]cc(-c5cccc(OCc6ccccc6)c5)c4c3)cc2)CC1 [Compound 7ar, 3-(3-(Benzyloxy)phenyl)-5-(4-((4-methylpiperazin-1-yl)methyl)phenyl)-1H-pyrrolo[2,3-b]pyridine] | 583 | 37.4 | 37.4 | 55.5 | 27.4 | 44.17 | 45.09 | 70.1 | 68
11 | Cc1cc(-c2c[nH]c3ncc(-c4ccc(CN5CCN(C)CC5)cc4)cc23)cnc1N [Compound 7l, 3-Methyl-5-(5-(4-((4-methylpiperazin-1-yl)methyl)phenyl)-1H-pyrrolo[2,3-b]pyridin-3-yl)pyridin-2-amine] | 177 | 106 | 106 | 27 | 5.45 | 58.50 | 57.04 | 53.2 | 52.4
12 | CCOc1ccc(-c2c[nH]c3ncc(-c4ccc(CN5CCN(C)CC5)cc4)cc23)cn1 [Compound 7b, 3-(6-Ethoxypyridin-3-yl)-5-(4-((4-methylpiperazin-1-yl)methyl)phenyl)-1H-pyrrolo[2,3-b]pyridine] | 496 | 52.3 | 52.3 | 77.6 | 42.8 | 86.71 | 86.95 | 89.2 | 87.8
13 | CC(=O)c1ccc(-c2c[nH]c3ncc(-c4ccc(CN5CCN(C)CC5)cc4)cc23)cc1 [Compound 7x, 1-(4-(5-(4-((4-Methylpiperazin-1-yl)methyl)phenyl)-1H-pyrrolo[2,3-b]pyridin-3-yl)phenyl)ethan-1-one] | 322 | 78.1 | 78.1 | 30.8 | 7.1 | 67.84 | 65.08 | 65.8 | 67.7
14 | CN1CCN(Cc2ccc(-c3cnc4[nH]cc(-c5ccc(NC(=O)NC6CCCCC6)cc5)c4c3)cc2)CC1 [Compound 7aw, 1-Cyclohexyl-3-(4-(5-(4-((4-methylpiperazin-1-yl)methyl)phenyl)-1H-pyrrolo[2,3-b]pyridin-3-yl)phenyl)urea] | 406 | 27.5 | 27.5 | 85.4 | 58.5 | 65.23 | 66.67 | 79.8 | 79.4
